What was measured:
Brassica napus = assay: Drought stress in vivo analysis Part B, appearance vs stressed control plants in categories; design: key: 0: no positive effect; +: slight positive effect; ++: clear positive effect; +++: strong positive effect
Experimental: (§1) Seeds of monocotyledonous and dicotyledonous crop plants were sown in sandy loam in plastic pots, covered with soil or sand and cultivated in a greenhouse under good growth conditions. The test plants are treated at the early leaf stage (BBCH10-BBCH13). To assure uniform water supply before commencement of stress, the potted plants were supplied with water by dam irrigation prior to substance application. The inventive compounds were first formulated as wettable powders (WP) or dissolved in a solvent mixture. The further dilution was effected with water supplemented with 0.2% wetting agent (e.g. agrotin). The finished spray liquor was sprayed onto the green parts of the plant at an equivalent water application rate of 600 I/ha. Substance application was followed immediately by stress treatment of the plants. Drought Stress was Induced by Gradual Drying Out Under the Following Conditions: “Day”: 14 hours with illumination at […]-30° C. “Night”: 10 hours without illumination at 18-20° C. The duration of the respective stress phases was guided mainly by the condition of the stressed control plants. It was ended (by re-irrigating and transfer to a greenhouse with good growth conditions) as soon as irreversible damage was observed on the stressed control plants. The end of the stress phase was followed by an about 4-7-day recovery phase, during which the plants were once again kept under good growth conditions in a greenhouse. The duration of the recovery phase was guided mainly by when the trial plants had attained a state which enabled visual scoring of potential effects, and was therefore variable. Once this juncture had been reached, the appearance of the plants treated with test substances was recorded in comparison to the stressed control plants by the following categories: [table] In order to rule out any influence on the effects observed by any fungicidal or insecticidal action of the test compounds, it was additionally ensured that the tests proceeded without fungal infection or insect infestation. The values reported in tables B-1 and […] below are mean values of the results from at least three repeats. Effects of selected compounds of the general formula (I) under drought stress according to the following tables B-1 and B-2: BRSNS=Brassica napus ZEAMX=Zea mays TRZAS=Triticum aestivum

Triticum aestivum = assay: as above; design: key: 0: no positive effect; +: slight positive effect; ++: clear positive effect; +++: strong positive effect
Experimental: as §1

| Compound | Effect (TRZAS) (Triticum aestivum; spray 25 g/ha) | Effect (TRZAS) (Triticum aestivum; spray 250 g/ha) | also measured |
| --- | --- | --- | --- |
| CN(C)N(Cc1ccc(F)cc1F)C(=O)c1c(C(F)(F)F)nn(C)c1Cl [Compound A1-15] | + |  | Effect (BRSNS) (Brassica napus; spray 25 g/ha): ++ |
| CN(C)N(Cc1ccccc1C#N)C(=O)c1c(C(F)(F)F)nn(C)c1F [Compound A2-61] | + |  | Effect (BRSNS) (Brassica napus; spray 25 g/ha): ++ |
| CN(C)N(Cc1cccc(Cl)c1Cl)C(=O)c1cn(C)nc1C(F)(F)F [Compound A4-4, N-(2,3-dichlorobenzyl)-N′,N′, 1-trimethyl-3-(trifluoromethyl)-1H-pyrazole-4-carbohydrazide] | + |  |  |
| CN(C)N(Cc1ccccc1C#N)C(=O)c1cn(C)nc1C(F)(F)F [Compound A4-61] | + |  |  |
| CCn1nc(C(F)F)c(C(=O)N(Cc2ccccc2C#N)N(C)C)c1F [Compound A7-61] |  | ++ |  |
| CN(C)N(Cc1ccccc1Cl)C(=O)c1cn(C)nc1C(F)F [Compound A8-1] | + |  |  |
| CN(C(=O)OC(C)(C)C)N(Cc1ccccc1Cl)C(=O)c1c(C(F)F)nn(C)c1F [Compound A13-1] |  |  | Effect (BRSNS) (Brassica napus; spray 250 g/ha): ++ |
| CN(C(=O)OC(C)(C)C)N(Cc1ccc(Cl)cc1Cl)C(=O)c1c(C(F)F)nn(C)c1F [Compound A13-5] | + |  |  |
| CN(C(=O)OC(C)(C)C)N(Cc1ccccc1Cl)C(=O)c1c(C(F)F)nn(C)c1Cl [Compound A14-1] | + |  |  |
| CN(C(=O)OC(C)(C)C)N(CCc1ccc(Cl)cc1Cl)C(=O)c1c(C(F)F)nn(C)c1Cl [Compound A14-615] | + |  |  |
| Cn1nc(C(F)F)c(C(=O)N(Cc2ccccc2C#N)N2CCCC2)c1Cl [Compound A18-61] | + |  |  |
| Cn1cc(C(=O)N(Cc2ccccc2Cl)N2CCCC2)c(C(F)F)n1 [Compound A20-1] |  |  | Effect (BRSNS) (Brassica napus; spray 250 g/ha): + |
| Cn1cc(C(=O)N(Cc2ccccc2C#N)N2CCCC2)c(C(F)F)n1 [Compound A20-61] |  | + |  |
| CNN(Cc1ccccc1Cl)C(=O)c1c(C(F)F)nn(C)c1F [Compound A22-1] |  | + | Effect (BRSNS) (Brassica napus; spray 250 g/ha): + |
| CCn1nc(C(F)F)c(C(=O)N(Cc2nccc(Cl)c2Cl)N2CCCC2)c1F [Compound A24-40] |  | + | Effect (BRSNS) (Brassica napus; spray 250 g/ha): + |
| CCn1nc(C(F)F)c(C(=O)N(Cc2cccnc2C#N)N2CCCC2)c1F [Compound A24-679] |  | + |  |
| CN(C)N(Cc1ccccn1)C(=O)c1ccsc1C(F)F [Compound B3-21] | + |  |  |
| CN(C)N(Cc1nccc(Cl)c1Cl)C(=O)c1ccsc1C(F)F [Compound B3-40] |  |  | Effect (BRSNS) (Brassica napus; spray 250 g/ha): + |
| CN(C)N(Cc1ccccc1C#N)C(=O)c1ccsc1C(F)F [Compound B3-61, N-(2-Cyanobenzyl)-2-(difluoromethyl)-N′,N′-dimethylthiophene-3-carbohydrazide] |  | + |  |
| CCc1sccc1C(=O)N(Cc1ccccc1Cl)N(C)C [Compound B4-1] | + |  |  |
| CCc1sccc1C(=O)N(Cc1ccccn1)N(C)C [Compound B4-21] | + |  |  |

| Compound | Effect (TRZAS) (Triticum aestivum; spray 25 g/ha) | Effect (TRZAS) (Triticum aestivum; spray 250 g/ha) | also measured |
| --- | --- | --- | --- |
| CCc1sccc1C(=O)N(Cc1ccccc1C#N)N(C)C [Compound B4-61] | + |  |  |
| Cc1occc1C(=O)N(Cc1ccccc1C#N)N(C)C [Compound C3-61] |  | + |  |
| Cc1nc(-c2cccnc2)sc1C(=O)N(Cc1cccc(Cl)c1Cl)N(C)C [Compound D1-4] |  | + |  |
| Cc1nc(-c2cccnc2)sc1C(=O)N(Cc1ccccc1C#N)N(C)C [Compound D1-61] | + |  |  |
| Cc1nc(-c2cccnc2)sc1C(=O)N(Cc1ccccn1)N1CCCC1 [Compound D2-21] |  |  | Effect (BRSNS) (Brassica napus; spray 25 g/ha): + |
| Cc1nc(-c2cccnc2)sc1C(=O)N(Cc1ccccc1C#N)N1CCCC1 [Compound D2-61] | + |  |  |
| CN(C)N(Cc1ccccc1Cl)C(=O)c1sc(Cl)nc1Cl [Compound D6-1] |  |  | Effect (BRSNS) (Brassica napus; spray 25 g/ha): + |
| CN(C)N(Cc1ccccn1)C(=O)c1sc(Cl)nc1Cl [Compound D6-21] |  | + |  |
| CN(C)N(Cc1ncc(C(F)(F)F)cc1Cl)C(=O)c1sc(Cl)nc1Cl [Compound D6-36] |  | + |  |
| CN(C)N(Cc1ccc(Cl)nc1)C(=O)c1sc(Cl)nc1Cl [Compound D6-94] |  | + |  |
| CN(C)N(Cc1ccccc1Cl)C(=O)c1snc(Cl)c1Cl [Compound E1-1] |  | + |  |
| CN(C)N(Cc1ccc(Cl)cc1)C(=O)c1snc(Cl)c1Cl [Compound E1-3] |  | + |  |
| CN(C)N(Cc1cccc(Cl)c1Cl)C(=O)c1snc(Cl)c1Cl [Compound E1-4] |  |  | Effect (BRSNS) (Brassica napus; spray 250 g/ha): + |
| CN(C)N(Cc1ccccc1C#N)C(=O)c1snc(Cl)c1Cl [Compound E1-61] |  | + |  |
| CN(C)N(Cc1ccc(Cl)nc1)C(=O)c1snc(Cl)c1Cl [Compound E1-94] | + |  |  |
| CC(Cc1ccccc1)N(C(=O)c1snc(Cl)c1Cl)N(C)C (stereo not shown) [Compound E1-351] | + |  |  |
| CCN(CC)N(Cc1ccccc1C#N)C(=O)c1snc(Cl)c1Cl [Compound E2-61] |  |  | Effect (BRSNS) (Brassica napus; spray 250 g/ha): + |
| N#Cc1ccccc1CN(C(=O)c1snc(Cl)c1Cl)N1CCCC1 [Compound E5-61] | + |  |  |
| Cc1nnsc1C(=O)N(Cc1ccccc1C#N)N(C)C [Compound F1-61] |  | + |  |
| Cc1nnsc1C(=O)N(Cc1ccc(Cl)nc1)N(C)C [Compound F1-94] |  |  | Effect (BRSNS) (Brassica napus; spray 250 g/ha): + |
| CC(C)c1nnsc1C(=O)N(Cc1ccccc1Cl)N(C)C [Compound F2-1, N-(2-Chlorobenzyl)-4-isopropyl-N′,N′-dimethyl-1,2,3-thiadiazole-5-carbohydrazide] |  | + |  |

| Compound | Effect (TRZAS) (Triticum aestivum; spray 25 g/ha) | Effect (TRZAS) (Triticum aestivum; spray 250 g/ha) | also measured |
| --- | --- | --- | --- |
| CC(C)c1nnsc1C(=O)N(Cc1cccc(Cl)c1Cl)N(C)C [Compound F2-4] |  |  | Effect (BRSNS) (Brassica napus; spray 250 g/ha): + |
| CC(C)c1nnsc1C(=O)N(Cc1nccc(Cl)c1Cl)N(C)C [Compound F2-40] |  |  | Effect (BRSNS) (Brassica napus; spray 250 g/ha): + |
| CC(C)c1nnsc1C(=O)N(Cc1ccc(Cl)nc1)N(C)C [Compound F2-94] | + |  |  |
| CN(C)N(Cc1ccccc1Cl)C(=O)c1snc(N)c1Cl [Compound G1-1] | + |  |  |
| CN(C)N(Cc1cccc(Cl)c1)C(=O)c1snc(N)c1Cl [Compound G1-2] |  |  | Effect (BRSNS) (Brassica napus; spray 25 g/ha): + |
| CN(C)N(Cc1ccccc1F)C(=O)c1ccns1 [Compound G8-11] |  |  | Effect (BRSNS) (Brassica napus; spray 25 g/ha): + |
| CN(C)N(Cc1ncc(C(F)(F)F)cc1Cl)C(=O)c1ccns1 [Compound G8-36] |  | ++ |  |
| O=C(c1ccns1)N(Cc1ccc(F)cc1F)N1CCCC1 [Compound G9-15] |  | + |  |
| O=C(c1ccns1)N(Cc1ccc(Cl)nc1)N1CCCC1 [Compound G9-94] |  | ++ |  |
| CN(C)N(Cc1cccc(Cl)c1Cl)C(=O)c1cc(OCc2ccccc2)ns1 [Compound G10-4] |  |  | Effect (BRSNS) (Brassica napus; spray 250 g/ha): + |
| CN(C)N(Cc1ccccc1F)C(=O)c1cc(OCc2ccccc2)ns1 [Compound G10-11] |  | + |  |
| CN(C)N(Cc1ccccn1)C(=O)c1cc(OCc2ccccc2)ns1 [Compound G10-21] | + |  |  |
| CN(C)N(Cc1ncc(C(F)(F)F)cc1Cl)C(=O)c1cc(OCc2ccccc2)ns1 [Compound G10-36] |  | ++ |  |
| CN(C)N(Cc1ccccc1C#N)C(=O)c1cc(OCc2ccccc2)ns1 [Compound G10-61] |  | + |  |
| Cc1c(OCc2ccccc2)nsc1C(=O)N(Cc1ncc(C(F)(F)F)cc1Cl)N(C)C [Compound G11-36] |  | ++ |  |
| CN(C)N(Cc1ccccn1)C(=O)c1cnsn1 [Compound H1-21] |  |  | Effect (BRSNS) (Brassica napus; spray 25 g/ha): + |
| O=C(c1cnsn1)N(Cc1ccccc1Cl)N1CCCC1 [Compound H2-1] |  | + |  |
| O=C(c1cnsn1)N(Cc1ccc(Cl)cc1)N1CCCC1 [Compound H2-3] |  | + |  |
| O=C(c1cnsn1)N(Cc1ccc(F)cc1F)N1CCCC1 [Compound H2-15] | ++ |  |  |
| O=C(c1cnsn1)N(Cc1ncc(C(F)(F)F)cc1Cl)N1CCCC1 [Compound H2-36] |  |  | Effect (BRSNS) (Brassica napus; spray 250 g/ha): ++ |
| N#Cc1ccccc1CN(C(=O)c1cnsn1)N1CCCC1 [Compound H2-61] |  | + |  |

Reference: US20180206498A1, “SUBSTITUTED HETEROARYL CARBOXYLIC ACID HYDRAZIDES OR SALTS THEREOF AND USE THEREOF TO INCREASE STRESS TOLERANCE IN PLANTS” (Bayer CropScience Aktiengesellschaft, priority 2015, published 2018)
